Assay results: ChEMBL document CHEMBL1144124, “New cytotoxic 1-azaanthraquinones and 3-aminonaphthoquinone from the stem bark of Goniothalamus marcanii” (1999)

What was measured:
Format in all cases: functional
A549 = assay: Cytotoxicity against human A549 cells after 48 hrs by SRB assay; conditions: A549, 48 h, read-out: ED50 (the source's name)
[1] = Cytotoxicity against human RPMI cells after 48 hrs by SRB assay; conditions: read-out: ED50 (the source's name)
U-251 = assay: Cytotoxicity against human U251 cells after 48 hrs by SRB assay; conditions: U-251, 48 h, read-out: ED50 (the source's name)
MCF7 = assay: Cytotoxicity against human MCF7 cells after 48 hrs by SRB assay; conditions: MCF7, 48 h, read-out: ED50 (the source's name)
HT-29 = assay: Cytotoxicity against human HT-29 cells after 48 hrs by SRB assay; conditions: HT-29, 48 h, read-out: ED50 (the source's name)

Work on `CC(=O)C1=C(N)C(=O)c2c(O)cccc2C1=O` yielded an EC50 (A549) of 2600 nM, an EC50 [1] of 3030 nM and an EC50 (U-251) of 3030 nM. The EC50 (MCF7) was 2600 nM.

`COc1c(C)c2c([nH]c1=O)C(=O)c1ccccc1C2=O` [DIELSIQUINONE] showed an EC50 (A549) of 110 nM, an EC50 [1] of 110 nM and an EC50 (U-251) of 370 nM. For the same compound, the EC50 (MCF7) was 110 nM and the EC50 (HT-29) was 1120 nM.

`Cc1cc(=O)[nH]c2c1C(=O)c1ccccc1C2=O` [MARCANIN A] gave an EC50 (A549) of 420 nM, an EC50 [1] of 420 nM and an EC50 (U-251) of 840 nM. It also gave an EC50 (MCF7) of 420 nM and an EC50 (HT-29) of 420 nM.

For `COc1c(C)c2c(n(C)c1=O)C(=O)c1ccccc1C2=O` [MARCANIN B], the EC50 (A549) was 350 nM, the EC50 [1] was 700 nM and the EC50 (U-251) was 1400 nM. The EC50 (MCF7) was 180 nM and the EC50 (HT-29) was 2120 nM.

In the case of `COc1c(CO)c2c(n(C)c1=O)C(=O)c1ccccc1C2=O` [MARCANINE C], the EC50 (A549) is reported as 1000 nM, the EC50 [1] is reported as 670 nM and the EC50 (MCF7) is reported as 1000 nM. It also gave an EC50 (HT-29) of 330 nM.

With `COc1c(C)c2c([nH]c1=O)C(=O)c1cccc(O)c1C2=O` [MARCANINE D] the EC50 (A549) was 40 nM, the EC50 [1] was 80 nM and the EC50 (U-251) was 280 nM. It also gave an EC50 (MCF7) of 80 nM and an EC50 (HT-29) of 350 nM.
